Source: ChEMBL document CHEMBL1649323, “Easy strategy to protect antimicrobial peptides from fast degradation in serum” (Antimicrob Agents Chemother, 2010)
≈ marks a conversion by molar mass, not a printed value.

How the values were obtained:
Pseudomonas aeruginosa = experiment: Antimicrobial activity against Pseudomonas aeruginosa PAO1 H103 by broth microdilution method; assay type: functional
Staphylococcus aureus = experiment: Antimicrobial activity against Staphylococcus aureus ATCC 25923 by broth microdilution method; assay type: functional
[1] = Half life in mouse serum; assay type: ADME, cell-free

MIC (Pseudomonas aeruginosa) | MIC (Staphylococcus aureus) | half-life [1] | Compound
2 µg/mL (≈ 1.07 µM) | 1 µg/mL (≈ 0.534 µM) |  | CC[C@H](C)[C@H](NC(=O)[C@H](CCCNC(=N)N)NC(=O)[C@H](Cc1c[nH]c2ccccc12)NC(=O)[C@H](CCCNC(=N)N)NC(=O)[C@H](CCCNC(=N)N)NC(=O)[C@@H](C)N)C(=O)N[C@H](C(=O)N[C@H](C(=O)N[C@H](C(=O)N[C@@H](CCCNC(=N)N)C(=O)N[C@H](C(=O)N[C@@H](CCCNC(=N)N)C(=O)N[C@@H](CCCNC(=N)N)C(=O)N[C@H](Cc1cnc[nH]1)C(N)=O)C(C)C)[C@@H](C)CC)C(C)C)C(C)C
2 µg/mL | 1 µg/mL | 1 h | H-RRWRIVVIRVRR-NH2
2 µg/mL (≈ 1.17 µM) | 1 µg/mL (≈ 0.587 µM) |  | CC[C@H](C)[C@H](NC(=O)[C@H](CNC(=N)N)NC(=O)[C@H](Cc1c[nH]c2ccccc12)NC(=O)[C@H](CNC(=N)N)NC(=O)[C@H](CNC(=N)N)NC(=O)[C@@H](C)N)C(=O)N[C@H](C(=O)N[C@H](C(=O)N[C@H](C(=O)N[C@@H](CNC(=N)N)C(=O)N[C@H](C(=O)N[C@@H](CNC(=N)N)C(=O)N[C@@H](CNC(=N)N)C(=O)N[C@H](Cc1cnc[nH]1)C(N)=O)C(C)C)[C@@H](C)CC)C(C)C)C(C)C
